Source: US20260256922A1, “PRODRUGS USEFUL FOR REDUCING ANTHRACYCLINE CARDIOTOXICITY” (WAKE FOREST UNIVERSITY HEALTH SCIENCES, priority 2022, published 2026)

Assays:
H9C2 cardiomyoblasts [1] = conditions: H9C2, 10 and 20 μM, 24 or 48 h; difference not significant at 48 h
Description: Cytotoxicity of DOX and prodrugs in H9C2 cardiomyoblasts. Media from cells exposed for 24 or 48 h to 10 or 20 µM of c1, c2, DOX or vehicle (DMSO, final concentration 0.1% in all samples) was centrifuged to remove cells and cell debris, and supernatants were assessed spectrophotometrically by lactose dehydrogenase (LDH) assay to evaluate release into the media as a measure of cytotoxicity (n=6 or more). *, p<0.05; **, p<0.01; ***, p<0.001; ****, p<0.0001.
Cytotoxicity of c1, c2 and DOX was evaluated by measuring the release of lactate dehydrogenase (LDH) into the culture medium over time.
H9C2 and 4T1 cells were plated at a density of 10,000 per well in 96-well plates. Twenty-four h after plating, cells were treated with 10 or 20 µM DOX (from 20 mM stock dissolved in DMSO, for 0.1% final DMSO) and were incubated for 24 or 48 h. The extracellular medium was centrifuged at 12,000×g for 5 min to pellet cellular debris, and the supernatants were assessed for release of lactate dehydrogenase (LDH) using a colorimetric activity assay (Invitrogen) as directed and spectral detection (Benchmark or BioRad microplate reader). Values were used to determine % cytotoxicity as described in the kit, using treatment with lysis buffer to release all LDH into the medium (defining 100% release) or cells without treatment (to define 0% release).

Nrf2 = Nrf2 and HO-1 immunoblots in H9C2 cells; type: cell-based, rat; conditions: H9C2, relative to DMSO vehicle
Text: The bar graphs below represent the mean±SEM. Results were statistically different between c1 and DOX in both cases (p=0.002 and p=0.019), and more marginally so between c1 and DMSO (p=0.011 and p.=0.025), for Nrf2 and HO-1, respectively.

caspase-3 = assay: Caspase-3 cleavage immunoblot in H9C2 cells; conditions: H9C2, 10 or 20 μM, 24 h
Description: FIG. 6. […] H9C2 cells in culture were treated for 24 hr with c1, c2, DOX or vehicle (DMSO), then harvested into lysis buffer and immunoblotted for caspase-3. Data analyzed by ImageJ were used to assess the percent of the two bands present as the lower band.
We next evaluated apoptotic signaling through caspase-3 cleavage at 24 h to compare the experimental compounds.
To evaluate levels of caspase cleavage (using an antibody recognizing both cleaved and uncleaved, Cell Signaling, cat #9662), Nrf2 (antibody from Thermo Fisher, cat #PA5-27882), and HO-1 (antibody from Proteintech, cat #10701-1-AP), H9C2 cells were plated at a density of 450,000 per well in a 24-well plate, then treated 24 h later with 10 or 20 µM DOX and incubated another 24 h before harvesting. For some samples, 100 mM hydroxocobalamin (HO-Cbl) was added 5 min before drug treatment. Cells were harvested by removing media (and recovering any non-adherent cells by centrifugation for 5 min at 10,600×g, discarding the supernatant), and combining that with the 120 μL of lysis buffer added to each well. Lysis buffer [50 mM Tris-HCl at pH 8.0, with 100 mM NaCl, 100 µM diethylene triamine pentaacetic acid (DTPA), 20 mM β-glycerophosphate, 0.1% SDS, 0.5% Na Desoxycholate, and 0.5% Triton-X-100] was prepared by freshly adding protease and phosphatase inhibitors before use (1 mM PMSF, 10 μg/mL aprotinin, 1 mM Na3VO4, 10 mM NaF and 10 μg/mL leupeptin). Samples were further incubated on ice for 30 min, then centrifuged at high speed (20,800×g for 10 min) to remove cell debris, and supernatants were mixed with 5×SDS protein sample buffer for Western blot analysis following resolution of 40 μg per sample on 10% SDS-polyacrylamide gels. Protein concentrations of supernatants were determined using a BCA assay (Pierce). Antibodies were used at dilutions of 1:1000 (for HO-1 and caspase-3) or 1:3000 (for Nrf2).

H9C2 cardiomyoblasts [2] = assay: Uptake into H9C2 cardiomyoblasts by live-cell confocal microscopy; type: cell-based, rat; conditions: imaging over 18 h
Description: FIG. 4. Uptake of DOX and prodrugs c1 and c2 by H9C2 cardiomyoblasts. H9C2 cells cultures grown overnight on chambered coverslips in media with 10% serum were switched to Fluorobrite DMEM imaging media supplemented with 5% serum and prepared for live-cell imaging on a Zeiss LSM 880 confocal microscope, then 10 µM of c1, c2, or DOX was added and images were taken every 10 min (averaged every 30 min) for 18 h. Approximately 20 cells present in each field of view were averaged for each sample and time point; normalized and averaged data from two replicates each±SEM were included for c1 and DOX. An earlier independent trial yielded very similar results (Fig. S1).
Uptake of DOX and prodrugs into H9C2 cardiomyoblasts. Before comparing the biological effects of treatments by DOX and prodrugs, it was important to know their time dependence of accumulation into the H9C2 cardiomyoblasts under investigation. For this, confocal microscopy of live cells in culture was used to track in real time the accumulation of the fluorescent molecules into the cells, allowing direct comparisons between c1, c2 and Dox. […] Thus, any biological effects observed using c1 rather than DOX will not be due to limited cellular uptake.
To evaluate drug uptake, H9C2 cells were plated at a density of 20,000 per well on 24 well #1.5 polymer chambered coverslips (Ibidi) in media including 10% FBS and allowed to adhere for ~20 h. Prior to imaging analysis, the media was replaced with Fluorobrite DMEM imaging media (Gibco) supplemented with 5% FBS. To 1 mL of media in each well was added either vehicle (DMSO), or a 20 mM stock solution of c1, c2, or DOX to give final concentrations of 10 or 20 µM drug and 0.1% DMSO. […] DOX and the prodrugs were detected with excitation by a 458 nm laser at 0.3% and emission from 535-648 nm.
Each position consisted of a 3 slice z-stack that was compressed with a maximum intensity projection for analysis. […] The mean intensity for both channels was calculated, normalized, and then averaged to 30 min time points.

[3] = Time-dependent DOX release from prodrugs in presence of H2O2 (LCMS); type: physicochemical; conditions: prodrug 10 μM, H2O2 10 μM, ammonium bicarbonate buffer 0.1 M pH 7.4
Description: FIG. 1. Time-course for DOX release from prodrugs (10 μM) in ammonium bicarbonate buffer (0.1 M, pH 7.4) at room temperature and in the presence of H2O2 (10 μM). A calibration curve was used to determine the concentration of free DOX at each time point by LCMS. Plotted as the mean±standard error of the mean (SEM) from three independent experiments.
To confirm this reactivity, we incubated c1 (10 μM) with H2O2 (10 μM) at room temperature in ammonium bicarbonate buffer (0.1 M, pH 7.4). At various time points, an aliquot was removed and analyzed by LCMS. Using a calibration curve, we determined the percentage of released DOX over the course of two hours. […] For comparison, we also assessed the reactivity of c2 towards the same concentration of peroxides. Like c1, c2 also functioned as an H2O2-activated DOX prodrug, but with faster kinetics, as quantitative release of free DOX was realized within 60 min.
A stock solution of c1 (or c2, 10 mM) in DMSO and H2O2 (10 mM) in ammonium bicarbonate buffer (0.1M, pH 7.4) were prepared immediately prior to use. […] At various time points (0 min, 10 min, 35 min, 60 min, 80 min, 100 min, 120 min), a 1 mL (inject volume 60 μL) aliquot was removed and analyzed by LC-MS (using a C18 analytical column and eluting at 0.4 mL/min with a linear gradient (20-90% v/v) MeOH/H2O (0-2 min), followed by 90% v/v MeOH/H2O (2-19 min)). […]

| SMILES | cytotoxicity (LDH release) (H9C2 cardiomyoblasts [1]) | HO-1 expression (immunoblot) (Nrf2) | caspase-3 cleavage (caspase-3) | accumulation in cells compared with DOX (H9C2 cardiomyoblasts [2]) | time to quantitative release of free DOX [3] |
| --- | --- | --- | --- | --- | --- |
| COc1cccc2c1C(=O)c1c(O)c3c(c(O)c1C2=O)C[C@@](O)(C(=O)CO)C[C@@H]3O[C@H]1C[C@H](N)[C@H](O)[C@H](C)O1 [DOX, Doxorubicin, reference compound] | more toxic than c1 | completely suppressed both | – | – | – |
| COc1cccc2c1C(=O)c1c(O)c3c(c(O)c1C2=O)C[C@@](O)(C(=O)CO)C[C@@H]3O[C@H]1C[C@H](NC(=O)OCc2ccc(B3OC(C)(C)C(C)(C)O3)cc2)[C@H](O)[C@H](C)O1 [c2] | intermediate toxicity but more similar to DOX than c1 | – | neither c1 nor c2 at either 10 or 20 UM caused notable caspase-3 cleavage | as slow as or slower than Dox | ≤ 60 min |
